The text below walks through data of patent publication US4764602A, “Antibiotics, and their production” (Sumitomo Chemical Company, priority 1986, dated 1988).

Structures are written as SMILES. ≈ marks a conversion by molar mass, not a printed value.

The subject of series [1] is Bacillus subtilis ATCC 6633. The series is described as follows: MIC by agar dilution method. It counts as cell-based. Particulars: ATCC6633, Modified MullerHinton agar medium. An excerpt:
(§1) The minimum inhibitory concentrations (MIC) of PC-766B against various microorgnisms as measured by the agar dilution method are shown in Table 4.
(§2) Note: *^1 1: Modified MullerHinton agar medium; 2: Sabouraud's agar

The subject of series [2] is Serratia marcescens ×100. The series is described as follows: MIC by agar dilution method. It is filed as cell-based. Conditions: Modified MullerHinton agar medium.
Description: as §1, §2
(In general: In agar dilution, organisms are placed on agar that contains the substance at set levels.)

Series [3] has as its system Escherichia coli NIJH JC-2. The series is described as follows: MIC by agar dilution method. It is filed as cell-based. Particulars: NIJHJC2, Modified MullerHinton agar medium.
Description: as §1, §2

The subject of series [4] is Staphylococcus epidermidis IAM 1296. The series is described as follows: MIC by agar dilution method. It is filed as cell-based. Conditions: IAM1296, Modified MullerHinton agar medium.
Description: as §1, §2

Series [5] deals with Bacillus cereus IAM 1029. Description: MIC by agar dilution method. It is filed as cell-based. Particulars: IAM1029, Modified MullerHinton agar medium.
Description: as §1, §2

Series [6] has as its system Proteus mirabilis GN 2425. Description: MIC by agar dilution method. Conditions: GN2425, Modified MullerHinton agar medium. It counts as cell-based.
Description: as §1, §2

In series [7] the test system is Trichophyton mentagrophytes MTU 19001. The series is described as follows: MIC by agar dilution method. It is filed as cell-based. Conditions: MTU19001, Sabouraud's agar medium.
Description: as §1, §2

Series [8] deals with Staphylococcus aureus 209P. The series is described as follows: MIC by agar dilution method. Conditions: Modified MullerHinton agar medium. It is filed as cell-based.
Description: as §1, §2

Series [9] has as its system Cryptococcus neoformans MTU 13001. The series is described as follows: MIC by agar dilution method. Conditions: MTU13001, Sabouraud's agar medium. It counts as cell-based.
Description: as §1, §2

The subject of series [10] is Klebsiella pneumoniae ATCC 10031. Description: MIC by agar dilution method. Conditions: ATCC10031, Modified MullerHinton agar medium. It counts as cell-based.
Description: as §1, §2

The subject of series [11] is Candida albicans MTU 12001. Description: MIC by agar dilution method. It counts as cell-based. Particulars: MTU12001, Sabouraud's agar medium.
Description: as §1, §2

The test system of series [12] is Micrococcus luteus ATCC 9341. The series is described as follows: MIC by agar dilution method. It counts as cell-based. Particulars: ATCC9341, Modified MullerHinton agar medium.
Description: as §1, §2

Series [13] has as its system Streptococcus pyogenes Cook. Description: MIC by agar dilution method. Conditions: Modified MullerHinton agar medium. It is filed as cell-based.
Description: as §1, §2

Series [14] deals with Aspergillus fumigatus MTU 16001. The series is described as follows: MIC by agar dilution method. It counts as cell-based. Particulars: MTU16001, Sabouraud's agar medium.
Description: as §1, §2

Series [15] concerns Pseudomonas aeruginosa T. Description: MIC by agar dilution method. It is filed as cell-based. Particulars: Modified MullerHinton agar medium.
Description: as §1, §2

A short description of series [16]: Solubility. It is filed as physicochemical.

By MIC is commonly meant the lowest concentration found to suppress growth. A lower MIC goes with inhibition by little substance. Turning to `CC=CC=CC1OC(O)(C(C)C(O)C(C)C2OC(=O)C(OC)=CC(C)=CC(C)C(O)C(C)CC(C)=CC=CC2OC)CC(OC2CC(O)C(O)C(C)O2)C1C` (centres unmarked) [PC-766B], the minimum inhibitory concentration (MIC) is 6.25 µg/mL (≈ 8.04 µM) in series [1]; more than 200 µg/mL in series [2]; more than 200 µg/mL in [3]; 6.25 µg/mL (≈ 8.04 µM) in series [4]; 3.13 µg/mL (≈ 4.03 µM) in series [5]; more than 200 µg/mL in [6]. Also, the MIC was more than 100 µg/mL in series [7]; 12.5 µg/mL (≈ 16.1 µM) in series [8]; 12.5 µg/mL (≈ 16.1 µM) in series [9]; more than 200 µg/mL in series [10]; more than 100 µg/mL in series [11]; 1.56 µg/mL (≈ 2.01 µM) in [12]. Further, the MIC is 3.13 µg/mL (≈ 4.03 µM) in series [13], more than 100 µg/mL in series [14] and more than 200 µg/mL in [15]. For the same molecule, the Solubility result in series [16] (methanol, chloroform and ethyl acetate) is “soluble in methanol, chloroform and ethyl acetate”; in series [16] (n-hexane and water), “insoluble in n-hexane and water”.
